Test results taken from patent US9238019B2, “Antitussive and bronchodilator uses for enaminone ester” (UNIVERSITY OF KUWAIT, priority 2006, dated 2016).

Legend:
guinea pigs [1] = test: Citric acid-induced cough in conscious guinea pigs (whole body plethysmography); format: in vivo, guinea pig; settings: 100 mg/kg in DMSO intraperitoneally, 1 h before citric acid (0.6 M) aerosol; coughs counted over 15 min; vs vehicle group; FIG. 2
Description: (§1) In order to test the effectiveness of enaminone ester E121 as an antitussive, two groups of guinea pigs were established. Group 1 was a control group, which consisted of ten guinea pigs, who were administered vehicle only (100% dimethyl sulfoxide [DMSO]) intraperitoneally. Group 2 was a test group, which consisted of ten guinea pigs, who were administered enaminone E121 (100 mg/kg in DMSO) intraperitoneally (i.e., via intraperitoneal injection). Each group was separately placed in a transparent whole body plythesmography box (Buxco, Troy, N.Y.) for testing one hour after administration of the vehicle or the enaminone ester E121, respectively.
Each group was allowed a settling period in the whole body plethysmograph, after which baseline airway function was recorded for 2 minutes before administration of an aerosol. Animals in each group were then exposed to citric acid (0.6 M) aerosol for 10 minutes, during which cough and airway function were recorded, and for an additional 5 minutes thereafter (a total of 15 minutes). The aerosols were generated using a DeVilbiss aerogen ultrasonic nebulizer (DeVilbiss, Somerset, Pa.), the nebulized spray having an aerodynamic mass median diameter droplet size range of […] (manufacturer's indication). […]
Coughs were recorded from conscious, unrestrained guinea pigs manually by a trained observer as confirmation. […]

guinea pigs [2] = test: Airway obstruction (enhanced pause, Penh) during citric acid aerosol exposure; format: in vivo, guinea pig; settings: 100 mg/kg in DMSO intraperitoneally; citric acid (0.6 M) aerosol; vs vehicle group; FIG. 3
Description: as §1
Each group was allowed a settling period in the whole body plethysmograph, after which baseline airway function was recorded for 2 minutes before administration of an aerosol. Animals in each group were then exposed to citric acid (0.6 M) aerosol for 10 minutes, during which cough and airway function were recorded, and for an additional 5 minutes thereafter (a total of 15 minutes). […]
The pressure differences between the main chamber of the whole body plethysmograph containing the animals and a reference chamber (box pressure signal) were measured. […]

[3] = test system: guinea pig bronchial preparations pre-contracted with carbachol; test: Agonist-induced relaxation of guinea pig bronchial ring preparations pre-contracted with carbachol; settings: concentration response curves repeated after one hour; compared with salbutamol
Description: Two groups of guinea pigs, each group containing twelve guinea pigs, were decapitated under light ether anesthesia and the tracheas were dissected out with the lungs en bloc. The origin of bifurcation of the trachea into bronchioles was identified after removal of the excess connective tissue. The isolated bronchioles were cut into ring segments of 4 mm in length. The preparations were mounted in organ baths containing 25 mL Krebs-Henseleit (KH) solution at pH 7.4, maintained at 37° C. and aerated with a 95% O2 and 5% CO2 mixture. The preparations were left to stabilize for 45 minutes, changing the KH solution at 15-minute intervals. A pre-tension of 0.75 gm was applied, and a stabilization period of 45 minutes was allowed until a stable baseline tone was obtained. Isolated segments of the bronchioles were pre-contracted with carbachol (3 μM). Responses of the carbachol pre-contracted bronchial ring segments to the different agonists were determined by measurement of changes in the isometric tension, using computerized automatic organ bath analyzing instruments.
Bronchodilator responses to salbutamol (10^−9-3×10^−4 M) and enaminone ester E121 (10^−9-10^−4 M) were investigated on different preparations of the bronchioles. […] The bronchodilator responses were expressed as a percentage reduction of the carbachol induced pre-contraction. […]

Solid-state stability = format: physicochemical; settings: room temperature

## CCOC(=O)C1C(=O)C=C(Nc2ccc(Cl)cc2)CC1C (stereo not shown) [enaminone E121, ethyl 4-[(4-chlorophenyl)amino]-6-methyl-2-oxocyclohex-3-en-1-oate]
Guinea pigs [1]
  number of coughs: substantially lower incidence of coughs
Guinea pigs [2]
  enhanced pause (Penh), bronchoconstriction or airway obstruction: less bronchoconstriction or airway obstruction
[3]
  tachyphylaxis of airway smooth muscle relaxant effect: lower levels of tachyphalaxis than salbutamol
Solid-state stability
  stability of the solid: stable solid at room temperature
